Experimental data published in patent publication US10981186B2, “Functional treatment application to particulate materials such as mulch or potting soil” (priority 2014, dated 2021).

Tests used:
[1] = Screening test 4: recovery of herbicide active ingredient from mulch (methanol extraction, HPLC); type: physicochemical
Procedure: Screening test 4: Recovery of functional material from particulate material
In this experimental study the herbicide active ingredient was analyzed as the content of functional material (herbicide) as the active ingredient in the particulate material (mulch).
Assay protocol: Ten milliliters of 100% methanol was used to extract the herbicide actives, Pendimethalin and Dimethenamid-P from one gram of mulch. Methanol and mulch were added to a vial and shaken at approximately 180 rpm for 30 minutes on a shaker table. Methanol was filtered from mulch and analyzed for actives via HPLC. Active ingredient recovery was recorded as weight percent. […]
Table 2 and Table 3 show the results of an experiment related to the recovery of herbicide active ingredient from particulate material after providing functional herbicide coating. Table 2 and Table 3 show active ingredient releasing from the mulch at one month exposure compared to non-exposed mulch in warehouse.

[2] = tested on: red imported fire ant (Solenopsis invicta) workers; settings: rate evaluation, 0.5 to 3 X label rate
Text: Testing with red imported fire ant (Solenopsis invicta, RIFA), Argentine ant (Linepthema humile), and odorous house ant (OHA) workers. Ten inch plastic arenas (inside walls coated with Fluon® to prevent escape) were provided a layer of moistened play sand. A band of mulch was placed across the arena near one side. Between the closest side and the mulch, a micro-centrifuge tube with a universal ant diet was placed. In the larger open area of the arena was placed a water vial and a small weigh boat with either corn grit+soybean oil (RIFA) or 20% honey water (Argentine ant and OHA). Approximately 100 ants were placed in each arena. Mortality was evaluated at 6 or 7 days.

[3] = Black mulch, Warehouse (non-exposed)
[4] = Natural mulch, Warehouse (non-exposed)
[5] = Red mulch, Warehouse (non-exposed)

Q: Which results are given for COC[C@H](C)N(C(=O)CCl)c1c(C)csc1C [dimethenamid-P]?
A: weight percent of dimethenamid-P ([1]; Black mulch, Bottom 1 month): <LOD; weight percent of dimethenamid-P ([1]; Black mulch, Top 1 month): 0.00003 weight percent; weight percent of dimethenamid-P [1, 3]: 0.002 weight percent; weight percent of dimethenamid-P ([1]; Natural mulch, Bottom 1 month): <LOD; weight percent of dimethenamid-P ([1]; Natural mulch, Top 1 month): 0.00004 weight percent; weight percent of dimethenamid-P [1, 4]: 0.00203 weight percent; weight percent of dimethenamid-P ([1]; Red mulch, Bottom 1 month): 0.00000 weight percent; weight percent of dimethenamid-P ([1]; Red mulch, Top 1 month): 0.00002 weight percent; weight percent of dimethenamid-P [1, 5]: 0.00233 weight percent

Q: Which “effectiveness over the rates tested (conclusion in words)” value [2] does the source give for CN/C(=N/CC1CCOC1)N[N+](=O)[O-] (stereo not shown) [dinotefuran] here?
A: Its value is “effective at all rates tested”.

Q: For CCC(CC)Nc1c([N+](=O)[O-])cc(C)c(C)c1[N+](=O)[O-] [pendimethalin], which “weight percent of pendimethalin” value ([1]; Black mulch, Bottom 1 month) is on record?
A: Its value is 0.00005 weight percent.

Q: What about the “weight percent of pendimethalin” value ([1]; Black mulch, Top 1 month) of the same compound?
A: The value was 0.00044 weight percent.

Q: What about the “weight percent of pendimethalin” value [1, 3] of the same compound?
A: Its value is 0.0044 weight percent.

Q: What about the “weight percent of pendimethalin” value ([1]; Natural mulch, Bottom 1 month) of the same compound?
A: Its value is 0.00026 weight percent.

Q: What about the “weight percent of pendimethalin” value ([1]; Natural mulch, Top 1 month) of the same compound?
A: Its value is 0.00079 weight percent.

Q: What about the “weight percent of pendimethalin” value [1, 4] of the same compound?
A: Its value is 0.00674 weight percent.

Q: What about the “weight percent of pendimethalin” value ([1]; Red mulch, Bottom 1 month) of the same compound?
A: Its value is 0.00026 weight percent.

Q: What about the “weight percent of pendimethalin” value ([1]; Red mulch, Top 1 month) of the same compound?
A: Its value is 0.00054 weight percent.

Q: And the “weight percent of pendimethalin” value [1, 5]?
A: The value was 0.00302 weight percent.
